Patent US20150274639A1, “METHODS OF USE FOR COMPOSITIONS COMPRISING A BIOCIDAL POLYAMINE” (Curza Global, LLC, priority 2013, published 2015)
Values after ≈ are worked out from the molar mass of the structure shown. Values joined by “and” are separate entries in the source; they are usually repeats but may differ in a detail not shown here. Equal values may be shown once.

How the values were obtained:
MRSA [1] = assay: MIC against MRSA as defined by CLSI (FIG. 25 series); assay type: cell-based, methicillin-resistant Staphylococcus aureus; conditions: Staphylococcus aureus
Procedure: To determine the MIC of the polyamine chains alone and the synthesized compounds against MRSA and P. aeruginosa ATCC 27853, a modified protocol from the Clinical and Laboratory Standards Institute (CLSI) guideline M26-A was used. […] All data was collected using cation adjusted MHB for standardization.
As mentioned, MRSA and P. aeruginosa ATCC 27853 were grown on Columbia blood agar plates prior to experimentation. From the blood agar plates, a 0.5 McFarland standard was made of each isolate. This equated to approximately 5×10^7 cells/mL for the MRSA isolate and approximately 3×10^7 cells/mL for the P. aeruginosa ATCC 27853 isolate. Of the 0.5 McFarland stock solution, 50 μL were added to MHB. […] All tests were performed such that a final volume of 5 mL of MHB were obtained. This provided a final bacterial concentration of approximately 5×10^5 cells/mL.
Each sample was incubated in glass test tubes at 37° C. for 24 hours, then plated in duplicate on tryptic soy agar (TSA) using a 10-fold dilution series. TSA plates were further incubated 24 hours at 37° C. The number of colony forming units (CFU) that grew were counted in order to calculate the number of bacteria that were present per mL in the original MHB solution.

MRSA [2] = assay: MIC in CAMHB, 96-well plate (10^5 to 10^2 CFU/mL in 24 hours); assay type: cell-based, methicillin-resistant Staphylococcus aureus; conditions: Staphylococcus aureus, MRSA
Procedure: To determine the MIC of polyamine compounds, the protocol described herein was used.
In brief, a 0.5 McFarland of each bacterial isolate was made. A 0.5 McFarland is a measure of turbidity in a liquid sample that contains approximately 1×10̂^8 CFU/mL. The 0.5 McFarland standard was diluted in cation adjusted Mueller Hinton Broth (CAMHB), and […], of broth were added to a well of a 96-well plate. In addition, 50 μL of CAMHB that contained a desired concentration of antimicrobial were also added to the well for a final volume of 100 and a final concentration of approximately 5×10^4 CFU/well (which equated to approximately 5×10^5 CFU/mL). Each well contained a desired amount of polyamine compound in order to experimentally determine the MIC. Each 96-well plate was incubated at 37° C. for 24 hours. The contents of each well were plated on tryptic soy agar (TSA). TSA plates were incubated for 37° C. for 24 hours after which the number of CFU were counted and used to calculate the CFU/mL that remained after exposure to varying concentrations of compound. This procedure was repeated n=8 times for each concentration of antimicrobial. […]

P. aeruginosa biofilm [3] = assay: MBEC, MBEC Inoculation Tray by Innovotech (to 10^2 CFU/peg in 24 hours); assay type: cell-based; conditions: Pseudomonas aeruginosa; Table 3A titled MICs; group head missing, values match MBEC; read-out: MIC, P. aeruginosa (second P. aeruginosa)
From the text: To determine the MBEC of each polyamine compound, the MBEC Inoculation Tray by Innovotech, formerly known as the Calgary biofilm device, was used. Within this device, biofilms grow on the surface of polystyrene pegs, 96 of which are attached to a lid. These pegs are inserted into a flat bottom 96-well plate. In this instance, the MBEC of a molecule was defined as the concentration of compound (in μg/mL) required to reduce 10^5 or 10^6 CFU/peg (biofilm levels varied by isolate) to 10^2 CFU/peg in a 24-hour period.
Following the manufacturer's guidelines, biofilms were grown on the surface of each peg by first making a 0.5 McFarland of each isolate. The 0.5 McFarland was diluted 1:100 in CAMHB. Into each well of a flat bottom 96-well plate, 150 μL of broth were pipetted. The plate was shaken at 100 rpm for 24 hours (P. aeruginosa and A. baumannii) or 48 hours (MRSA). The pegs were then placed into a separate flat bottom 96-well plate for 10 seconds with 200 μL of phosphate buffered saline (PBS) in each well to remove nonadherent cells. The lid was then placed into a 96-well plate that contained varying concentrations of antimicrobial with 200 μL per well. The plate was incubated for 24 hours at 37° C. after which time 100 μL of broth were plated on TSA. TSA plates were incubated 24 hours at 37° C. and the number of CFU counted to calculate the CFU/peg. […]

P. aeruginosa biofilm [4] = assay: EBEC, high number biofilms on PEEK membranes (10^9 to 10^2 CFU/PEEK membrane in 24 hours); assay type: cell-based; conditions: Pseudomonas aeruginosa; Table 3B titled MICs; group head missing, values match EBEC
Procedure: In addition to determining the MIC and the MBEC of polyamine compounds against planktonic bacteria and low number biofilms, our group wanted to determine the efficacy of polyamine compounds against high number biofilms. To do so, biofilms were grown on the surface of polyetheretherketone (PEEK) membranes using a membrane biofilm reactor. This reactor is similar to the CDC biofilm reactor, but rather than growing biofilms on coupon surfaces, the reactor was modified to hold PEEK membranes. In short, to grow biofilms within this system, 500 mL of brain heart infusion (BHI) broth were inoculated with 1 mL of a 0.5 McFarland. The reactor was placed on a hot plate set at 34° C. and the bacteria were grown under batch conditions for 24 hours. Following this protocol, biofilms typically grow to 10^9 CFU/PEEK membrane. […] A solution of 10% BHI was then flowed through the reactor at a rate of 6.94 mL/min for an additional 24 hours. PEEK membranes were then removed and placed into 2 mL of CAMHB that contained a desired concentration of polyamine compound or antibiotic. The EBEC was defined as the concentration of antimicrobial required to reduce a biofilm from approximately 10^9 CFU/PEEK membrane to approximately 10^2 CFU/PEEK membrane in a 24-hour period.

MRSA biofilm = assay: as above; assay type: cell-based, methicillin-resistant Staphylococcus aureus; conditions: Staphylococcus aureus, Table 3B titled MICs, group head missing, values match EBEC

Row | SMILES | MIC (MRSA [1]) [µg/mL] | MIC (MRSA [2]; Table 3A, first MRSA column) [µg/mL] | MIC (MRSA [2]; Table 4) | MIC (P. aeruginosa biofilm [3]) [µg/mL] | MIC (P. aeruginosa biofilm [4]) [µg/mL] | MIC (MRSA biofilm) [µg/mL] | MIC (MRSA [2]; Table 5, class symbols) [µM]
1 | NCCCNCCCNCc1cccc(CNCCCNCCCN)c1 [CZ-25] | 45 (≈ 123 µM) | 40 | 40 µg/mL and 110 µM | > 500 | > 5000 | > 5000 | –
2 | NCCCNCCCNCc1cc(CNCCCNCCCN)cc(-c2ccccc2)c1 [CZ-58] | – | – | 6 µg/mL and 13.6 µM | – | – | – | < 50
3 | NCCCNCCCNCc1cc(CNCCCNCCCN)cc(CNCCCNCCCN)c1 [CZ-52] | 3 (≈ 5.91 µM) | 3 | 3 µg/mL and 6 µM | 400 (≈ 788 µM) | > 5000 | 250 (≈ 492 µM) | –
